Entries after “also recorded” stand apart in the source; their conditions may differ. Where no end group is shown, it is not given here.
B1: ODF2 (protein, UniProt Q5BJF6 1-829, looked up)
Outer dense fiber protein 2: MSASSSGGSPRFPSCGKNGVTSLTQKKVLRAPCGAPSVTVTKSHKRGMKGDTVNVRRSVRVKTKVPWMPPGKSSARPVGCKWENPPHCLEITPPSSEKLVSVMRLSDLSTEDDDSGHCKMNRYDKKIDSLMNAVGCLKSEVKMQKGERQMAKRFLEERKEELEEVAHELAETEHENTVLRHNIERMKEEKDFTILQKKHLQQEKECLMSKLVEAEMDGAAAAKQVMALKDTIGKLKTEKQMTCTDINTLTRQKELLLQKLSTFEETNRTLRDLLREQHCKEDSERLMEQQGALLKRLAEADSEKARLLLLLQDKDKEVEELLQEIQCEKAQAKTASELSKSMESMRGHLQAQLRSKEAENSRLCMQIKNLERSGNQHKAEVEAIMEQLKELKQKGDRDKESLKKAIRAQKERAEKSEEYAEQLHVQLADKDLYVAEALSTLESWRSRYNQVVKEKGDLELEIIVLNDRVTDLVNQQQTLEEKMREDRDSLVERLHRQTAEYSAFKLENERLKASFAPMEDKLNQAHLEVQQLKASVKNYEGMIDNYKSQVMKTRLEADEVAAQLERCDKENKILKDEMNKEIEAARRQFQSQLADLQQLPDILKITEAKLAECQDQLQGYERKNIDLTAIISDLRSRIEHQGDKLEMAREKHQASQKENKQLSLKVDELERKLEATSAQNIEFLQVIAKREEAIHQSQLRLEEKTRECGTLARQLESAIEDARRQVEQTKEHALSKERAAQNKILDLETQLSRTKTELSQLRRSRDDADRRYQSRLQDLKDRLEQSESTNRSMQNYVQFLKSSYANVFGDGPYSTFLTSSPIRSRSPPA
B2: ATAD2 (protein, UniProt Q6PL18 1-1390, looked up)
ATPase family AAA …: MVVLRSSLELHNHSAASATGSLDLSSDFLSLEHIGRRRLRSAGAAQKKPAATTAKAGDGSSVKEVETYHRTRALRSLRKDAQNSSDSSFEKNVEITEQLANGRHFTRQLARQQADKKKEEHREDKVIPVTRSLRARNIVQSTEHLHEDNGDVEVRRSCRIRSRYSGVNQSMLFDKLITNTAEAVLQKMDDMKKMRRQRMRELEDLGVFNETEESNLNMYTRGKQKDIQRTDEETTDNQEGSVESSEEGEDQEHEDDGEDEDDEDDDDDDDDDDDDDDEDDEDEEDGEEENQKRYYLRQRKATVYYQAPLEKPRHQRKPNIFYSGPASPARPRYRLSSAGPRSPYCKRMNRRRHAIHSSDSTSSSSSEDEQHFERRRKRSRNRAINRCLPLNFRKDELKGIYKDRMKIGASLADVDPMQLDSSVRFDSVGGLSNHIAALKEMVVFPLLYPEVFEKFKIQPPRGCLFYGPPGTGKTLVARALANECSQGDKRVAFFMRKGADCLSKWVGESERQLRLLFDQAYQMRPSIIFFDEIDGLAPVRSSRQDQIHSSIVSTLLALMDGLDSRGEIVVIGATNRLDSIDPALRRPGRFDREFLFSLPDKEARKEILKIHTRDWNPKPLDTFLEELAENCVGYCGADIKSICAEAALCALRRRYPQIYTTSEKLQLDLSSINISAKDFEVAMQKMIPASQRAVTSPGQALSTVVKPLLQNTVDKILEALQRVFPHAEFRTNKTLDSDISCPLLESDLAYSDDDVPSVYENGLSQKSSHKAKDNFNFLHLNRNACYQPMSFRPRILIVGEPGFGQGSHLAPAVIHALEKFTVYTLDIPVLFGVSTTSPEETCAQVIREAKRTAPSIVYVPHIHVWWEIVGPTLKATFTTLLQNIPSFAPVLLLATSDKPHSALPEEVQELFIRDYGEIFNVQLPDKEERTKFFEDLILKQAAKPPISKKKAVLQALEVLPVAPPPEPRSLTAEEVKRLEEQEEDTFRELRIFLRNVTHRLAIDKRFRVFTKPVDPDEVPDYVTVIKQPMDLSSVISKIDLHKYLTVKDYLRDIDLICSNALEYNPDRDPGDRLIRHRACALRDTAYAIIKEELDEDFEQLCEEIQESRKKRGCSSSKYAPSYYHVMPKQNSTLVGDKRSDPEQNEKLKTPSTPVACSTPAQLKRKIRKKSNWYLGTIKKRRKISQAKDDSQNAIDHKIESDTEETQDTSVDHNETGNTGESSVEENEKQQNASESKLELRNNSNTCNIENELEDSRKTTACTELRDKIACNGDASSSQIIHISDENEGKEMCVLRMTRARRSQVEQQQLITVEKALAILSQPTPSLVVDHERLKNLLKTVVKKSQNYNIFQLENLYAVISQCIYRHRKDHDKTSLIQKMEQEVENFSCSR

Columns and labels:
[1] = system: Monocyte-derived dendritic cells; assay type: cell-based, human
HeLa cells = assay: Cellular uptake of fluorescent-labeled peptide vaccines, fluorescent microscopy; assay type: cell-based, human
Method: Methods: In this experiment, the uptake of two fluorescent-labeled peptide vaccines was examined using a fluorescent microscope in cultured cells. HeLa cells were grown on cover slides for one day and then treated with peptide vaccines. Cells were fixed with 4% paraformaldehyde, washed with PBS, and analyzed with fluorescent microscopy.

[2] = system: peritoneal tumour biopsies; assay: Transcriptome analysis of the Murcia patient's peritoneal tumour biopsies; settings: target of 2nd generation personalized vaccines
Excerpt: All the putative 8-20 amino acids long epitopes were created from these proteins and used for designing the 2nd generation of personalized vaccines according to the invention. […] These antigens have different length and amino acid sequences. All selected peptide antigen contains multiple highly ranked epitopes (13-66) presented on the cell surface by the patient's HLA class I and class II molecules. The range of the potency score is indicated for the selected epitopes. Epitopes presented by the patient's HLA class I and class II molecules are indicated to induce CD8 and CD4 responses, respectively. As described in the invention, the potency of each epitope in the vaccines was calculated and indicated to inform the physician about the predicted efficacy of the personalised vaccines in the recipient.

| Molecule | cellular uptake (HeLa cells; 120 minutes) | Relative expression [2] | other results |
| --- | --- | --- | --- |
| Fluoresc-KSS-QYIKANSKFIGITE-RRRRRRRR-LNVPMVATV (fluorescein-KSSQYIKANSKFIGITERRRRRRRRLNVPMVATV) |  |  | uptake in dendritic cells compared to the control vaccines [1]: substantial increase in the uptake; also recorded: exceptional uptake |
| Fluoresc-KSSQYIKANSKFIGITERRRRRRRRLNVPMVATV-NH2 (fluorescein-KSSQYIKANSKFIGITERRRRRRRRLNVPMVATV-NH2) [vaccine (CD4-R8-CD8)] | diffuse distribution throughout the cytoplasm and nucleus |  | cellular uptake compared to the control vaccines (HeLa cells; after 30 minutes and 120 minutes of incubation): substantial increase in the uptake; cellular uptake (HeLa cells; within 30 minutes): rapid uptake into both the cytoplasm and nucleus |
| Fluoresc-KSSQYIKANSKFIGITEAAALNVPMVATV-NH2 (fluorescein-KSSQYIKANSKFIGITEAAALNVPMVATV-NH2) [peptide vaccines (CD4-CD8), control peptide vaccine lacking the R8 component, reference compound] | poorly detectable cellular uptake |  |  |
| B1 |  | 19 |  |
| B2 |  | 9 |  |
